Measurements reported in the NIST ThermoML archive (doi:10.1016/j.fluid.2014.11.020).
Numbers after ± are expanded uncertainties.

Assay: activity coefficient (dimensionless); of the first substance listed, at infinite dilution; xn = mol fraction of the nth substance listed
Details: Liquid, Chromatography, x1 = 0

SMILES	activity coefficient (323.15 K)	activity coefficient (333.15 K)	activity coefficient (343.15 K)
c1ccccc1 [benzene] + CCCCCCCCn1cc[n+](COCCCOC[n+]2ccn(CCCCCCCC)c2C)c1C.N#C[N-]C#N.N#C[N-]C#N	0.7 ± 0.05	0.71 ± 0.05	0.71 ± 0.05
CCC[N+](=O)[O-] [1-nitropropane] + CCCOC[n+]1ccn(C)c1.F[B-](F)(F)F	1.78 ± 0.12	1.78 ± 0.12	1.78 ± 0.12
CO [methanol] + CCCCCCCCn1cc[n+](COCCCOC[n+]2ccn(CCCCCCCC)c2C)c1C.N#C[N-]C#N.N#C[N-]C#N	0.2 ± 0.03	0.2 ± 0.03	0.21 ± 0.03
C#CCCCC [1-hexyne] + CCCCCCCCn1cc[n+](COCCCOC[n+]2ccn(CCCCCCCC)c2C)c1C.N#C[N-]C#N.N#C[N-]C#N	1.72 ± 0.12	1.68 ± 0.11	1.63 ± 0.11
CCCCCCCCCCCCC [tridecane] + CCCOC[n+]1ccc(N(C)C)cc1.O=S(=O)([N-]S(=O)(=O)C(F)(F)F)C(F)(F)F	102 ± 7	96.4 ± 6.6	81.9 ± 5.6
c1ccsc1 [thiophene] + CCCCCCCCn1cc[n+](COCCC)c1C.O=S(=O)([N-]S(=O)(=O)C(F)(F)F)C(F)(F)F	0.57 ± 0.04	0.52 ± 0.04	0.56 ± 0.04
C#CCCCCC [1-heptyne] + CCCCCCCCn1cc[n+](COCCCOC[n+]2ccn(CCCCCCCC)c2C)c1C.O=S(=O)([N-]S(=O)(=O)C(F)(F)F)C(F)(F)F.O=S(=O)([N-]S(=O)(=O)C(F)(F)F)C(F)(F)F	1.4 ± 0.09	1.4 ± 0.09	1.41 ± 0.09
C1COCCO1 [1,4-dioxane] + Cn1cc[n+](COCCCOC[n+]2ccn(C)c2)c1.N#C[N-]C#N.N#C[N-]C#N	1.09 ± 0.07	1.11 ± 0.07	1.13 ± 0.07
CCCC(C)=O [pentan-2-one] + CCCOC[n+]1ccn(C)c1.N#C[N-]C#N	2.24 ± 0.15	2.27 ± 0.15	2.32 ± 0.16
CCO [ethanol] + CCCOC[n+]1ccn(C)c1.N#C[N-]C#N	0.74 ± 0.05	0.73 ± 0.05	0.71 ± 0.05
Cc1ccc(C)cc1 [1,4-dimethylbenzene] + CCCCCCCCn1cc[n+](COCCC)c1C.O=S(=O)([N-]S(=O)(=O)C(F)(F)F)C(F)(F)F	1.02 ± 0.06	1.01 ± 0.06	1 ± 0.06
CCC[N+](=O)[O-] [1-nitropropane] + CCCCCCCCn1cc[n+](COCCC)c1C.O=S(=O)([N-]S(=O)(=O)C(F)(F)F)C(F)(F)F	0.54 ± 0.04	0.53 ± 0.04	0.53 ± 0.04
C#CCCCCC [1-heptyne] + Cn1cc[n+](COCCCOC[n+]2ccn(C)c2)c1.N#C[N-]C#N.N#C[N-]C#N	27.6 ± 1.9	26.2 ± 1.8	26.1 ± 1.8
CO [methanol] + CN(C)c1cc[n+](COCCCOC[n+]2ccc(N(C)C)cc2)cc1.O=S(=O)([N-]S(=O)(=O)C(F)(F)F)C(F)(F)F.O=S(=O)([N-]S(=O)(=O)C(F)(F)F)C(F)(F)F	0.91 ± 0.06	0.86 ± 0.06	0.79 ± 0.05
C1COCCO1 [1,4-dioxane] + CCCCCCCCn1cc[n+](COCCC)c1C.N#C[N-]C#N	0.77 ± 0.05	0.78 ± 0.05	0.78 ± 0.05
Cc1ccc(C)cc1 [1,4-dimethylbenzene] + CCCOC[n+]1ccn(Cc2ccccc2)c1.F[B-](F)(F)F	5.12 ± 0.35	4.85 ± 0.33	4.88 ± 0.33
c1ccsc1 [thiophene] + CCCOC[n+]1ccn(C)c1.N#C[N-]C#N	1.41 ± 0.09	1.45 ± 0.1	1.5 ± 0.1
CCC[N+](=O)[O-] [1-nitropropane] + N#C[N-]C#N.N#C[N-]C#N.c1ccc(Cn2cc[n+](COCCCOC[n+]3ccn(Cc4ccccc4)c3)c2)cc1	1.76 ± 0.12	1.73 ± 0.12	1.75 ± 0.12
C1COCCO1 [1,4-dioxane] + CN(C)c1cc[n+](COCCCOC[n+]2ccc(N(C)C)cc2)cc1.O=S(=O)([N-]S(=O)(=O)C(F)(F)F)C(F)(F)F.O=S(=O)([N-]S(=O)(=O)C(F)(F)F)C(F)(F)F	0.44 ± 0.04	0.45 ± 0.04	0.45 ± 0.04
C[N+](=O)[O-] [nitromethane] + CCCCCCCCn1cc[n+](COCCCOC[n+]2ccn(CCCCCCCC)c2C)c1C.N#C[N-]C#N.N#C[N-]C#N	0.44 ± 0.04	0.43 ± 0.04	0.42 ± 0.04
Cc1cccc(C)c1 [1,3-dimethylbenzene] + CCCOC[n+]1ccn(C)c1.F[B-](F)(F)F	11 ± 0.75	10.8 ± 0.74	10.7 ± 0.73
c1ccccc1 [benzene] + Cn1cc[n+](COCCCOC[n+]2ccn(C)c2)c1.N#C[N-]C#N.N#C[N-]C#N	3.03 ± 0.21	3.05 ± 0.21	3.08 ± 0.21
CCC(=O)CC [pentan-3-one] + CCCCCCCCn1cc[n+](COCCCOC[n+]2ccn(CCCCCCCC)c2C)c1C.O=S(=O)([N-]S(=O)(=O)C(F)(F)F)C(F)(F)F.O=S(=O)([N-]S(=O)(=O)C(F)(F)F)C(F)(F)F	0.28 ± 0.03	0.28 ± 0.03	0.29 ± 0.03

SMILES	activity coefficient (323.15 K)	activity coefficient (333.15 K)	activity coefficient (343.15 K)
C#CCCCC [1-hexyne] + CCCOC[n+]1ccn(C)c1.F[B-](F)(F)F	10.3 ± 0.7	10.1 ± 0.69	9.44 ± 0.64
C1COCCO1 [1,4-dioxane] + CCCOC[n+]1ccc(N(C)C)cc1.O=S(=O)([N-]S(=O)(=O)C(F)(F)F)C(F)(F)F	0.56 ± 0.04	0.59 ± 0.04	0.59 ± 0.04
C#CCCCC [1-hexyne] + CCCOC[n+]1ccn(C)c1.N#C[N-]C#N	6.98 ± 0.48	7.6 ± 0.52	–
CCCCCCCCCC [decane] + CCCOC[n+]1ccn(C)c1.F[B-](F)(F)F	635 ± 44	573 ± 39	500 ± 34
CCCCO [butan-1-ol] + CCCCCCCCn1cc[n+](COCCCOC[n+]2ccn(CCCCCCCC)c2C)c1C.N#C[N-]C#N.N#C[N-]C#N	7.49 ± 0.51	5.96 ± 0.41	4.81 ± 0.33
Cc1ccccc1 [toluene] + CCCOC[n+]1ccn(C)c1.N#C[N-]C#N	3.6 ± 0.25	3.65 ± 0.25	3.77 ± 0.26
CO [methanol] + CCCOC[n+]1ccc(N(C)C)cc1.O=S(=O)([N-]S(=O)(=O)C(F)(F)F)C(F)(F)F	1.28 ± 0.08	1.23 ± 0.08	1.16 ± 0.07
Cc1ccc(C)cc1 [1,4-dimethylbenzene] + N#C[N-]C#N.N#C[N-]C#N.c1ccc(Cn2cc[n+](COCCCOC[n+]3ccn(Cc4ccccc4)c3)c2)cc1	8.84 ± 0.6	8.42 ± 0.57	8.16 ± 0.56
CCC(=O)CC [pentan-3-one] + Cn1cc[n+](COCCCOC[n+]2ccn(C)c2)c1.O=S(=O)([N-]S(=O)(=O)C(F)(F)F)C(F)(F)F.O=S(=O)([N-]S(=O)(=O)C(F)(F)F)C(F)(F)F	0.6 ± 0.04	0.63 ± 0.04	0.63 ± 0.04
CCCCCCCCC [nonane] + CCCOC[n+]1ccn(Cc2ccccc2)c1.F[B-](F)(F)F	179 ± 12	164 ± 11	126 ± 8.7
CC#N [acetonitrile] + Cn1cc[n+](COCCCOC[n+]2ccn(C)c2)c1.N#C[N-]C#N.N#C[N-]C#N	0.68 ± 0.05	0.68 ± 0.05	0.69 ± 0.05
CCO [ethanol] + Cn1cc[n+](COCCCOC[n+]2ccn(C)c2)c1.O=S(=O)([N-]S(=O)(=O)C(F)(F)F)C(F)(F)F.O=S(=O)([N-]S(=O)(=O)C(F)(F)F)C(F)(F)F	1.06 ± 0.07	0.96 ± 0.06	0.89 ± 0.06
CCO [ethanol] + CCCOC[n+]1ccn(C)c1.O=S(=O)([N-]S(=O)(=O)C(F)(F)F)C(F)(F)F	1.51 ± 0.1	1.36 ± 0.09	1.26 ± 0.08
CCc1ccccc1 [ethylbenzene] + CCCOC[n+]1ccn(Cc2ccccc2)c1.F[B-](F)(F)F	4.89 ± 0.33	4.71 ± 0.32	4.73 ± 0.32
Cc1cccc(C)c1 [1,3-dimethylbenzene] + CCCCCCCCn1cc[n+](COCCC)c1C.N#C[N-]C#N	1.54 ± 0.1	1.54 ± 0.1	1.57 ± 0.1
C1COCCO1 [1,4-dioxane] + CCCOC[n+]1ccn(C)c1.N#C[N-]C#N	1.06 ± 0.07	1.09 ± 0.07	1.12 ± 0.07
CCC(=O)CC [pentan-3-one] + CCCOC[n+]1ccn(Cc2ccccc2)c1.O=S(=O)([N-]S(=O)(=O)C(F)(F)F)C(F)(F)F	0.43 ± 0.04	0.43 ± 0.04	0.44 ± 0.04
C1CCCCCC1 [cycloheptane] + CCCCCCCCn1cc[n+](COCCCOC[n+]2ccn(CCCCCCCC)c2C)c1C.N#C[N-]C#N.N#C[N-]C#N	10.1 ± 0.69	13.5 ± 0.92	18.3 ± 1.2
Cc1ccccc1C [1,2-dimethylbenzene] + CCCOC[n+]1ccn(C)c1.N#C[N-]C#N	5.05 ± 0.34	5.13 ± 0.35	5.22 ± 0.36
C1COCCO1 [1,4-dioxane] + CCCOC[n+]1ccn(Cc2ccccc2)c1.N#C[N-]C#N	0.84 ± 0.05	0.88 ± 0.06	0.89 ± 0.06
ClCCl [dichloromethane] + CCCOC[n+]1ccn(Cc2ccccc2)c1.N#C[N-]C#N	0.58 ± 0.04	0.63 ± 0.04	0.68 ± 0.05
CC#N [acetonitrile] + CCCOC[n+]1ccn(Cc2ccccc2)c1.O=S(=O)([N-]S(=O)(=O)C(F)(F)F)C(F)(F)F	0.39 ± 0.03	0.34 ± 0.03	0.34 ± 0.03
C1CCCCC1 [cyclohexane] + CCCCCCCCn1cc[n+](COCCCOC[n+]2ccn(CCCCCCCC)c2C)c1C.N#C[N-]C#N.N#C[N-]C#N	4.29 ± 0.29	3.86 ± 0.26	3.71 ± 0.25
